The source of these data is US11634607B2, “Compositions for containers and other articles and methods of using same” (SWIMC LLC, priority 2011, dated 2023).

In this assay the test system is MCF-7, clone WS8, cells. The experiment in a line: MCF-7 cell proliferation assay of estrogenic activity. The class given is cell-based, human. As to conditions: logarithmic (base 10) Relative Proliferative Effect vs 17-beta estradiol; 'expected or measured' values, not told apart. The text has this:
The MCF-7 assay uses MCF-7, clone WS8, cells to measure whether and to what extent a substance induces cell proliferation via estrogen receptor (ER)-mediated pathways. The method is described in “Test Method Nomination: MCF-7 Cell Proliferation Assay of Estrogenic Activity” submitted for validation by CertiChem, Inc. to the National Toxicology Program Interagency Center for the Evaluation of Alternative Toxicological Methods (NICEATM) on Jan. 19, 2006 (available online at http://iccvam.niehs.nih.gov/methods/endocrine/endodocs/SubmDoc.pdf).
A brief summary of the method of the aforementioned MCF-7 assay is provided below. MCF-7, clone WS8, cells are maintained at 37° C. in RMPI (or Roswell Park Memorial Institute medium) containing Phenol Red (e.g., GIBCO Catalog Number 11875119) and supplemented with the indicated additives for routine culture. An aliquot of cells maintained at 37° C. are grown for 2 days in phenol-free media containing 5% charcoal stripped fetal bovine serum in a 25 cm^2 tissue culture flask. Using a robotic dispenser such as an epMotion 5070 unit, MCF-7 cells are then seeded at 400 cells per well in 0.2 ml of hormone-free culture medium in Corning 96-well plates. The cells are adapted for 3 days in the hormone-free culture medium prior to adding the chemical to be assayed for estrogenic activity. The media containing the test chemical is replaced daily for 6 days. At the end of the 7-day exposure to the test chemical, the media is removed, the wells are washed once with 0.2 ml of HBSS (Hanks' Balanced Salt Solution), and then assayed to quantify amounts of DNA per well using a micro-plate modification of the Burton diphenylamine (DPA) assay, which is used to calculate the level of cell proliferation.
RPE is the ratio between the EC50 of the test chemical and the EC50 of the control substance 17-beta estradiol times 100, where EC50 is “effective concentration 50%” or half-maximum stimulation concentration for cell proliferation measured as total DNA in the MCF-7 assay.

For the molecule `C[C@]12CC[C@@H]3c4ccc(O)cc4CC[C@H]3[C@@H]1CC[C@@H]2O` [17β-estradiol], the “Log RPE” value is listed as 2.00. With `Oc1ccc(Cc2ccc(O)cc2)cc1` [Bisphenol F] the figure was −2; with `O=S(=O)(c1ccc(O)cc1)c1ccc(O)cc1` [Bisphenol S], −2.
